# Legend:
# [1] = DPPH* radical antioxidant test of plant extracts; assay type: biochemical; settings: DPPH* assay, reference; read-out: EC50 of Vitamin E
# [2] = Photobleaching of lycopenes in mineral oil; assay type: physicochemical; settings: 0.1% in Mineral Oil, visible light and oxygen, FIG. 1
# Source text: FIG. 1A is a graph illustrating the effects of photobleaching of lycopenes dissolved in mineral oil, over time.
# The principal plant actives under development are the hydrophobic plant actives derived from carrot extracts (carotenes) and tomato paste (lycopenes). Both actives are known anti-cancer agents and regulators of epithelial homeostasis. Their role in epidermopoeisis and skin care is still under investigation. For both materials, extracts have been prepared and enriched by sequential extraction with ethyl alcohol and organic solvents. These extracts are then dried to a powder form and solubilized in Mineral Oil. A clear necessity for the preparation of such formulations is to prevent the photo-bleaching that occurs in mineral oil solutions exposed to visible light and oxygen This may typically be accomplished by addition of mineral oil solutions of Vitamin E (0.1%). […] Similar results have been obtained with the addition of Vitamin E to prevent the photo-bleaching of carotenes derived from Carrot Extracts.
substance,measurement,setting,value
Tocopherol [Vitamin E],EC50,[1],46 µM
same,effect on photo-bleaching of lycopenes,[2],photo-protective effect

# Source: patent US20050048020A1, “Novel topical delivery system for plant derived anti-irritants” (priority 2003, published 2005)
